Data on four compounds can be found in patent US4141993A, “Compounds of diphenylcyclopentylamine type and methods for their preparation” (priority 1971, dated 1979).

The test system of data set [1] is mice. Kind of data set: Motor activity in mice (exploratory activity, locomotion cage). The class given is in vivo. Particulars: Mus musculus, ip, 1 h, read-out: Motor activity ID50. The procedure:
The exploratory activity of mice was recorded in a locomotion cage in which the movements were counted each time the animals cross-circuit an electrical current in the bottom plate. The activity was recorded for ten minutes one hour after the administration of the drug. The animals were tested individually. Groups of six mice were used and the mice were only used once. The activity was expressed in percent of the activity of control groups ran simultaneously.

For data set [2] the following is noted: first observable after; cited from earlier work.
The test system of data set [3] is Dopa response. Nature of the data set: Dopa response potentiation test. The class given is in vivo, mice. Particulars: for L-DOPA potentiation, 10 mg/kg i.p., 1h / L-DOPA potentiation, 10 mg/kg i.p., 4h: score, pargyline pretreated; for L-DOPA potentiation, 10 mg/kg i.p., 1h: drug 1 h before 1-Dopa 100 mg/kg i.p.; for L-DOPA potentiation, 10 mg/kg i.p., 4h: drug 4 h before 1-Dopa 100 mg/kg i.p.
Description: Mice in groups of 3 are pretreated with Pargyline® 40 mg/kg p.o. about 10-16 hours before the test. […] 1-Dopa gives a characteristic syndrome which is scored as follows:
1. piloerection, slight salivation, slight increased motor activity
2. piloerection, salivation, marked increased motor activity and irritability
3. piloerection, profuse salivation, marked irritability and reactivity, jumping, squeaking, fighting.
The control groups are Amitriptyline (20 mg/kg i.p. 4 hours before 1-Dopa) and saline (1 hour before 1-Dopa). […] The test drugs were all tested at 10 mg/kg i.p.

The subject of data set [4] is 5-HTP response. Nature of the data set: 5-HTP response potentiation test. The class given is in vivo, mice. Particulars: for 5-HTP potentiation, 25 mg/kg i.p., 1h: drug 1 h before 5-HTP; for 5-HTP potentiation, 25 mg/kg i.p., 1h / 5-HTP potentiation, 25 mg/kg i.p., 4h: 0 = without effect; for 5-HTP potentiation, 25 mg/kg i.p., 4h: drug 4 h before 5-HTP. The procedure: 1. 5-HTP response potentiation test
Inhibition of the uptake of 5-HT potentiates the effects of administered 5-hydroxytryptophane (5-HTP) probably by increasing the amount of 5-HT at the receptor.
These small movements are quantitatively measured in an activity box, type Animex, which can distinguish between small and gross movements. The activity is measured during 20 minutes and only in the case the animals have a fullblown syndrome.

Data set [5] has as its system mice. Kind of data set: Anticholinergic effect (mydriasis) in mice. The class given is in vivo. The procedure: (§1) Acute toxicity, behavior and anticholinergic effect (mydriasis) in mice
(§2) The compounds were given by intravenous route to 3 mice. […] Seizures, gait, sedation and grip strength were recorded. […] PD200 is the dose which increases the pupil by 200%.

In data set [6] the test system is uptake of tritiated 5-HT. Kind of data set: Inhibition of the uptake of tritiated 5-HT in vivo (drug i.p., uptake in midbrain slices). Details: species or system mice. Particulars: for ED50: Mus musculus, ip, 0.5 h, read-out: Inhibition (50 %) of uptake in vivo, 5-HT (ED50), i.p., half an hour before the animals were killed. As to the method:
(§3) 1. Inhibition of the uptake of tritiated 5-HT in vitro and in vivo
The drugs were administered intraperitoneally half an hour before the animals were killed and the midbrain was taken out and sliced and incubated in a mixture consisting of, per 100 mg of brain slices, 0.2 μmole of ^3 H-5-HT and 1 μmole of glucose in 2 ml of Krebs-Henseleit buffer, pH 7.4. The incubation time was 5 minutes with 5 minutes of preincubation before ^3 H-5-HT was added. The radioactive ^3 H-5-HT taken up in the slices was extracted with ethanol and the amount was determined by liquid scintillation. […] Active uptake is defined as that part of the radioactive uptake which is inhibited by a high concentration of cocaine. All doses were given at least to four animals.

Data set [7] has as its system uptake of tritiated noradrenaline. Kind of data set: Inhibition of the uptake of tritiated noradrenaline in vitro (cortex slices). Particulars: for Inhibition (50 %) of uptake in vitro, NA: dl-noradrenaline 10^-7 M. The class given is biochemical. The procedure:
(§4) 2. Inhibition of the uptake of tritiated noradrenaline in vitro and in vivo
(§5) The method is found in European Journal of Pharmacology 2 (1967), 181- 186. The animals were killed half or one hour after the administration of the drugs in vivo (i.p.). The slices, made from cortex, were preincubated for five minutes and incubated with 0.1 μmole per ml of ^3 H-noradrenaline for further five minutes. The incubation mixture consisted of 0.2 μmole of ^3 H-NA and the brain slices in 2 ml of Krebs-Henseleits buffer, pH 7.4. The radioactive ^3 H-NA taken up in the slices was extracted with ethanol and the amount was determined by liquid scintillation. The dose producing 50 percent decrease of the active uptake (ED50) was determined graphically from dose response curves. At least four animals were used at each dose level.
Inhibition (50 %) of uptake
^2) Na = dl-noradrenaline 10^-7 M

Data set [8] shares this test system. Nature of the data set: Inhibition of the uptake of tritiated noradrenaline in vivo (drug i.p., uptake in cortex slices). Particulars: for ED50: ip, 1 h, read-out: Inhibition (50 %) of uptake in vivo, NA (ED50), i.p., half or one hour before the animals were killed; for selectivity towards noradrenaline: uptake inhibition, compared with imipramine. As to the method: as §4
as §5, with “The” for “The method is found in European Journal of Pharmacology 2 (1967), 181- 186. The”

The subject of data set [9] is uptake of tritiated 5-HT. Kind of data set: Inhibition of the uptake of tritiated 5-HT in vitro (midbrain slices). The class given is biochemical, mice. Particulars: for Inhibition (50 %) of uptake in vitro, 5-HT: 5-hydroxytryptamine 10^-7 M. The procedure:
as §3
[…] out and sliced and incubated in a mixture consisting of, per 100 mg of brain slices, […] 2 ml of Krebs-Henseleit buffer, pH 7.4. The incubation time was 5 minutes with 5 minutes of preincubation before ^3 H-5-HT was added. The radioactive ^3 H-5-HT taken up in the slices was extracted with ethanol and the amount was determined by liquid scintillation. […] Active uptake is defined as that part of the radioactive uptake which is inhibited by a high concentration of cocaine. All doses were given at least to four animals.

The nature of data set [10]: Drug induced arrhythmia in rats: ECG changes and LD50. Format: in vivo. Particulars: in vivo, iv; i.v. infusion, rat, stepwise increased doses. An excerpt:
(§6) Drug Induced Arrhythmia in Rats: ECG changes and LD50
(§7) Rats were infused intravenously with test drugs and relevant reference compounds. The doses are increased stepwise. The first dose causing ECG changes of any type was noted, and thereafter the doses were increased up to the lethal dose.

In data set [11] the test system is rats. Described as above. Format: in vivo.
Description: as §6, §7

Data set [12] is described as follows: Acute toxicity in mice. Particulars: mouse, in vivo, iv, within 24 hours. As to the method:
as §1, §2

Data set [13] relates to uptake of tritiated 5-HT. Kind of data set: Inhibition of the uptake of tritiated 5-HT in vivo (drug i.p., uptake in midbrain slices). Particulars: for time of maximal uptake inhibition: uptake inhibition increases with time; for duration of inhibition of the uptake mechanism compared with imipramine: uptake of 5-HT and noradrenaline. Details: species or system mice.
[14] abbreviates: i.p., one hour after administration.

Where two headings read alike, the source gives them in different places.

On to `CN(C)CCCN1c2ccccc2CCc2ccccc21` [Imipramine, imipramine, reference compound], for which the ED50 in data set [1] stood at 45 mg/kg. Besides, the “onset of antidepressive effect” value in data set [2] was 3 weeks. In data set [3], the “L-DOPA potentiation, 10 mg/kg i.p., 1h” value was 2 and the “L-DOPA potentiation, 10 mg/kg i.p., 4h” value came out at 1. In data set [4] (control group), the “potentiation of dl-5-HTP by reference, in words” value was “constantly potentiated dl-5-HTP”. In addition, in data set [4], the “5-HTP potentiation, 25 mg/kg i.p., 1h” value came to 25 and the “5-HTP potentiation, 25 mg/kg i.p., 4h” value was 0. In data set [5] (i.v., 10 minutes after injection, dose which increases the pupil by 200%), the “Mydriasis PD200” value amounted to 13 mg/kg. Also, in [6], the ED50 came to 24 mg/kg. The “Inhibition (50 %) of uptake in vitro, NA” value in data set [7] is 0.06 µg/mL. Moreover, the ED50 in data set [8] was 6 mg/kg. In addition, the “Inhibition (50 %) of uptake in vitro, 5-HT” value (shortened to “Inhibition (50 %) … 5-HT”) in [9] amounted to 0.10 µg/mL.

On to `NC1CCC(c2ccccc2)(c2ccccc2)C1` (stereo not shown) [PUB 105, 1-Amino-3,3-diphenylcyclopentane], for which the ED50 in data set [1] (setting [14]) was more than 50 mg/kg. For the same compound, in [3], the “L-DOPA potentiation, 10 mg/kg i.p., 1h” value is given as 3 and the “L-DOPA potentiation, 10 mg/kg i.p., 4h” value is 3. For the same compound, in data set [4], the “5-HTP potentiation, 25 mg/kg i.p., 1h” value turned out to be 12.5 and the “5-HTP potentiation, 25 mg/kg i.p., 4h” value is recorded as 25. The “Mydriasis PD200” value in data set [5] (mouse, in vivo, iv, 10 min) is listed as 19 mg/kg. In data set [6], the ED50 fell in the range of 10 to 20 mg/kg and the “inhibition of uptake of 5-hydroxytryptamine in vivo, in words” value is listed as “strong inhibition”. Moreover, in data set [10], the LD50 turned out to be 58 mg/kg. The “ECG changes i.v. rat (first dose causing ECG changes of any type)” value in data set [11] (i.v. infusion) was determined as 14. In addition, the “dose causing ECG changes relative to that of imipramine” value in [11] (i.v., rat) is 3 times. In [7], the “Inhibition (50 %) of uptake in vitro, NA” value stood at 0.15 µg/mL and the “inhibition of uptake of noradrenaline in vitro, in words” value is on record as “potent inhibitors”. This compound displayed an LD50 at 24 h in [12] of 22 mg/kg. Further, in data set [8], the “inhibition of uptake of noradrenaline in vivo, in words” value is on record as “strong inhibition”; the ED50 worked out at 20 mg/kg; the selectivity towards noradrenaline entry is given as “substantially nonselective ability towards noradrenaline”. In data set [9], the “Inhibition (50 %) … 5-HT” value worked out at 0.18 µg/mL and the “inhibition of uptake of 5-hydroxytryptamine in vitro, in words” value is “potent inhibitors”. Further, in data set [13], the “uptake inhibition still pronounced after” value came to 16 h, the “time of maximal uptake inhibition” value is “four” and the “duration of inhibition of the uptake mechanism compared with imipramine” value is recorded as “much longer time than does the reference substance imipramine”.

As for `NC1CCC(c2ccccc2)(c2ccc(Cl)cc2)C1` (stereo not shown) [PUN 122, 1-amino-3-(4-chlorophenyl)-3-phenylcyclopentane], in data set [1] (setting [14]), the ED50 was more than 50 mg/kg. Besides, in data set [3], the “L-DOPA potentiation, 10 mg/kg i.p., 1h” value stood at 3 and the “L-DOPA potentiation, 10 mg/kg i.p., 4h” value was determined as 3. In addition, the “5-HTP potentiation, 25 mg/kg i.p., 1h” value in [4] is 25. In addition, the “Mydriasis PD200” value in data set [5] (mouse, in vivo, iv, 10 min) is recorded as more than 12.5 mg/kg. In data set [6], the ED50 was found to be 20 mg/kg and the “inhibition of uptake of 5-hydroxytryptamine in vivo, in words” value is given as “strong inhibition”. In addition, in data set [7], the “Inhibition (50 %) of uptake in vitro, NA” value was found to be 0.3 µg/mL and the “inhibition of uptake of noradrenaline in vitro, in words” value is recorded as “potent inhibitors”. Besides, the LD50 at 24 h in data set [12] was determined as 15 mg/kg. For the same compound, in data set [8], the “inhibition of uptake of noradrenaline in vivo, in words” value is reported as “strong inhibition”; the ED50 worked out at 30 mg/kg; the selectivity towards noradrenaline entry was “substantially nonselective ability towards noradrenaline”. Besides, in data set [9], the “Inhibition (50 %) … 5-HT” value stood at 0.7 µg/mL and the “inhibition of uptake of 5-hydroxytryptamine in vitro, in words” value was “potent inhibitors”. Also, in [13], the “uptake inhibition still pronounced after” value was determined as 16 h, the “time of maximal uptake inhibition” value is given as “four” and the “duration of inhibition of the uptake mechanism compared with imipramine” value was “much longer time than does the reference substance imipramine”.

With `NC1CCC(c2ccc(Cl)cc2)(c2ccc(Cl)cc2)C1` (stereo not shown) [PUT 108, 1-amino-3,3-di(4-chlorophenyl)cyclopentane], the ED50 is more than 50 mg/kg in data set [1] (setting [14]), more than 40 mg/kg in [6] and more than 40 mg/kg in data set [8]. For the same compound, in [3] (printed in the 1h column, head 10 mg/kg i.p.), the “L-DOPA potentiation, entry given as a bound (no score)” value is on record as more than 10. The “5-HTP potentiation, 25 mg/kg i.p., 1h” value in data set [4] is on record as more than 25. The “Mydriasis PD200” value in data set [5] (mouse, in vivo, iv, 10 min) is listed as more than 23 mg/kg. Also, in data set [7], the “Inhibition (50 %) of uptake in vitro, NA” value was found to be 2.5 µg/mL. In data set [12], this compound registered an LD50 at 24 h of 23 mg/kg. In data set [9], the “Inhibition (50 %) … 5-HT” value was found to be 1 µg/mL.

What is called LD50 is the dose expected to kill half of the subjects tested.
